# According to ChEMBL document CHEMBL1949656, “Characterization of a 1,4-disubstituted 1,2,3-triazole binding to T box antiterminator RNA” (Bioorg Med Chem, 2012):
# Activity calls are given as the source filed them. The rule behind the calls is not given here.
# Experiments:
# Nucleic Acid [1] = test: Binding affinity to AM1A T box antiterminator model RNA at 100 to 300 uM after 130 mins by FRET assay; format: nucleic-acid assay
# Nucleic Acid [2] = test: Binding affinity to C11U T box antiterminator model RNA at 100 to 300 uM after 130 mins by FRET assay; format: nucleic-acid assay
# Nucleic Acid [3] = test: Binding affinity to AM1A T box antiterminator model RNA assessed as change in melting temperature at 100 uM by UV-thermal denaturation method; format: nucleic-acid assay
# Nucleic Acid [4] = test: Stabilization of AM1A T box antiterminator model RNA assessed as effect on flexibility of RNA after 40 hrs by autoradiography based in-line probing assay; format: nucleic-acid assay
# Nucleic Acid [5] = test: Stabilization of AM1A T box antiterminator model RNA assessed as reduction in flexibility at U6-C12 bulge region of RNA after 40 hrs by autoradiography based in-line probing assay; format: nucleic-acid assay
# Nucleic Acid [6] = test: Binding affinity to AM1A T box antiterminator model RNA assessed as melting temperature at 100 uM by UV-thermal denaturation method (reference value: 51 deg C)
smiles,measurement,setting,value
CN(CCCc1ccccc1)Cc1cn(CC(O)COC(=O)NCc2ccccc2)nn1 (stereo unspecified),Kd,Nucleic Acid [1],56 µM
same,Kd,Nucleic Acid [2],59 µM
same,Tm(app),Nucleic Acid [3],69 °C
same,Activity,Nucleic Acid [4],Active
same,Activity,Nucleic Acid [5],Active
same,Tm,Nucleic Acid [6],52 °C
